Experimental data reported in a compilation of properties of binary mixtures (doi:10.1021/acs.jced.9b01032).

Experiment: xn = mol fraction of the nth substance listed
Details: 93.2 kPa

NC=O + CCCC[n+]1ccn(C)c1.F[P-](F)(F)(F)(F)F
speed of sound (288.15 K, x2 = 0): 1619 m/s | speed of sound (298.15 K, x2 = 0): 1598 m/s | speed of sound (303.15 K, x2 = 0): 1588 m/s

CCCC[n+]1ccn(C)c1.F[P-](F)(F)(F)(F)F + NC=O
speed of sound (288.15 K, x1 = 0.0502): 1587 m/s | speed of sound (288.15 K, x1 = 0.0995): 1563 m/s | speed of sound (288.15 K, x1 = 0.1488): 1545 m/s | speed of sound (288.15 K, x1 = 0.3001): 1513 m/s | speed of sound (288.15 K, x1 = 0.4985): 1494 m/s | speed of sound (288.15 K, x1 = 0.6976): 1484 m/s | speed of sound (288.15 K, x1 = 0.7792): 1482 m/s | speed of sound (288.15 K, x1 = 0.8902): 1480 m/s | speed of sound (288.15 K, x1 = 1): 1478 m/s | speed of sound (293.15 K, x1 = 0.0502): 1576 m/s | speed of sound (293.15 K, x1 = 0.0995): 1552 m/s | speed of sound (293.15 K, x1 = 0.1488): 1534 m/s | speed of sound (293.15 K, x1 = 0.3001): 1501 m/s | speed of sound (293.15 K, x1 = 0.3821): 1491 m/s | speed of sound (293.15 K, x1 = 0.4985): 1482 m/s | speed of sound (293.15 K, x1 = 0.595): 1476 m/s | speed of sound (293.15 K, x1 = 0.8902): 1467 m/s | speed of sound (293.15 K, x1 = 1): 1464 m/s | speed of sound (298.15 K, x1 = 0.0502): 1565 m/s | speed of sound (298.15 K, x1 = 0.1488): 1522 m/s | speed of sound (298.15 K, x1 = 0.2006): 1508 m/s | speed of sound (298.15 K, x1 = 0.3821): 1479 m/s | speed of sound (298.15 K, x1 = 0.4985): 1470 m/s | speed of sound (298.15 K, x1 = 0.595): 1464 m/s | speed of sound (298.15 K, x1 = 0.8902): 1454 m/s | speed of sound (303.15 K, x1 = 0.0502): 1554 m/s | speed of sound (303.15 K, x1 = 0.0995): 1529 m/s | speed of sound (303.15 K, x1 = 0.1488): 1511 m/s | speed of sound (303.15 K, x1 = 0.2006): 1497 m/s | speed of sound (303.15 K, x1 = 0.3001): 1478 m/s | speed of sound (303.15 K, x1 = 0.3821): 1468 m/s | speed of sound (303.15 K, x1 = 0.4985): 1458 m/s | speed of sound (303.15 K, x1 = 0.6976): 1448 m/s | speed of sound (303.15 K, x1 = 0.7792): 1445 m/s | speed of sound (303.15 K, x1 = 0.8902): 1442 m/s | speed of sound (303.15 K, x1 = 1): 1439 m/s
